Results published in US5436233A, “4-aminoquinazoline derivatives” (Ono Pharmaceutical Co., Ltd., priority 1993, dated 1995).
Counter-ions that a name gives are not always drawn.

Assays:
cGMP-PDE = cGMP-PDE (Homo sapiens, UniProt O76074); assay: Inhibitory effect on cGMP-PDE; assay type: biochemical; conditions: PDE IC isolated from human platelets; 3H-cGMP substrate 0.2 mM; pH 8.0; DMSO 2.5%
Description: Typically, connective tissue and adventitia were removed and 1-2 units of platelets were suspended in 10 volumes of buffer A (20 mM Tris-HCl, pH 7.5, containing 2 mM magnesium acetate, 1 mM dithiothreitol, and 5 mM Na2EDTA) using a Brinkman polytron. The proteinase inhibitors leupeptin, pepstatin A, and phenylmethyl-sulfonyl fluoride (PMSF) were also included in this buffer (final concentration of 100 nM each). The homogenate was centrifuged at 100,000g for 60 minutes. The supernatant was then removed and filtered through four layers of cheesecloth. The supernatant was applied to a DWAE-Trisacryl M column. The column was washed with several bed volumes of buffer B (20 mM Tris-HCl, pH 7.5, containing 2 mM magnesium acetate, 1 mM dithiothreitol, and proteinase inhibitors) and eluted by two successive linear NaCl gradients (0.05-0.15M, 300 ml total; 0.15-0.40M, 200 ml total). Five milliliter fractions were collected and assayed for cyclic GMP PDE activity.
The concentration of substrate (^3 H-cGMP) was 0.2 mM. Compounds of the present invention were dissolved in dimethyl sulfoxide (DMSO) at a final concentration of 2.5%. This concentration of DMSO inhibited enzyme activity by approximately 10%.

TXA2 synthetase = biological target: T1, TXA2 synthetase (Rattus norvegicus, UniProt P49430); assay: Inhibitory effect on TXA2 synthetase (TXB2 synthesis in A23187-stimulated heparinized whole blood); assay type: cell-based, Male Wistar rats; conditions: 37° C, Ca ionophore A23187 30 μM, TXB2 by EIA
T1 construct: whole blood was collected from abdominal aorta; from tissue; host or cells: freshly drawn heparinized whole blood of male Wistar rats
T1 sequence (P49430 1-533): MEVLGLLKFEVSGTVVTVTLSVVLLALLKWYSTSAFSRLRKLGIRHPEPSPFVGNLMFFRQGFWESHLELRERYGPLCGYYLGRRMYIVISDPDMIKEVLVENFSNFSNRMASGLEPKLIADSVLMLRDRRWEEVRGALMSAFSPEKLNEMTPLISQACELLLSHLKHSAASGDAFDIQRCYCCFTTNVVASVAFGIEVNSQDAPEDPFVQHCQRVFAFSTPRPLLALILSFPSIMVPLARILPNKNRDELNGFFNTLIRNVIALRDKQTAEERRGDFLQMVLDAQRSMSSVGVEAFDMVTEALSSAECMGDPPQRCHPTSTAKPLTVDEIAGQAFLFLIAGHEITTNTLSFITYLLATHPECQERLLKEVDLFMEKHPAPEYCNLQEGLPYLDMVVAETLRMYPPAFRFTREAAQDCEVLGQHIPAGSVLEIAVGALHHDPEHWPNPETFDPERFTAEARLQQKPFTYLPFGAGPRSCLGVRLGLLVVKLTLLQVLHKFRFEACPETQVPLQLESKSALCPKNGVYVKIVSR
Description: Male Wistar rats were starved overnight. Five hundreds microliter of heparinized (10 U/mL) whole blood was collected from abdominal aorta using polyethylene syringe (needle: 22 or 26G). The blood freshly drawn from animal was preincubated with 5 μL of test compound at 37° C. Five minutes later, 2.5 μL of 6 mM of Ca ionophore A23187 (final concentration of 30 μM) was added into tube, and incubation mixture was further incubated for 15 min. The reaction was terminated by centrifugation of tubes at 12,000 rpm for 2 min. TXB2 content in the supernatant was determined by EIA as follows.
One milliliter of 0.5M glycine-HCl buffer (pH 3.2) was added to 100 μL of sample. The samples were mixed well and centrifuged at 1,700 G for 10 min at 4° C. The extracted supernatant was applied to a SEP-PAK (registered Trade Mark) C18 cartridge (Waters Assoc.). After washing with 10 mL of distilled water followed by 10 mL each of 15% ethanol and petroleum ether, the sample was eluted with 3 mL of ethyl acetate. The ethyl acetate fraction was evaporated to dryness under gentle N2 stream and the residue was dissolved in EIA buffer (final volume of 1 mL) following the addition of 300 μL of 0.01M NaHCO3 -NaOH buffer (pH 10.0). EIA for TXB2 was carried out according to a legend attached to the kit (Chyman Chemical Co., Inc.). Overall recovery of TXB^2 in this extraction procedure was 90%. […]

## CN(C)S(=O)(=O)c1ccc2nc(-n3ccnc3)nc(NCc3ccccc3)c2c1 [6(j), 6-dimethylaminosulfonyl-4-phenylmethylamino-2-(1-imidazolyl)quinazoline hydrochloride]
cGMP-PDE
  IC50: 135 nM

## CN(C)c1ccc(CNc2nc(-c3cccnc3)nc3ccccc23)cc1 [3(o), 4-(4-(N,N-dimethylamino)phenylmethyl)amino-2-(3-pyridyl)quinazoline trihydrochloride]
cGMP-PDE
  IC50: 2400 nM

## C(=C\c1nc(NCc2ccccc2)c2ccccc2n1)/c1cccnc1 [Example 7, 4-phenylmethylamino-2-(2-(3-pyridyl)vinyl)quinazoline]
cGMP-PDE
  IC50: 200 nM

## C#Cc1ccc2nc(-n3ccnc3)nc(NCCOC)c2c1 [Example 18, 6-ethynyl-4-(2-methoxyethyl)amino-2-(1-imidazolyl)quinazoline]
cGMP-PDE
  IC50: 46 nM
TXA2 synthetase
  IC50: 2400 nM

## C#Cc1ccc2nc(-n3ccnc3)nc(NCc3ccccc3)c2c1 [18(b), 2-(1-imidazolyl)-4-phenylmethylamino-6-ethynylquinazoline dihydrochloride]
cGMP-PDE
  IC50: 0.53 nM

## c1ccc(CNc2nc(Cn3ccnc3)nc3ccccc23)cc1 [6(b), 4-phenylmethylamino-2-((1-imidazolyl)methyl)quinazoline dihydrochloride]
cGMP-PDE
  IC50: 300 nM
